Experimental data reported in patent publication US7601850B2, “Phenyl-thiophene type vitamin D receptor modulators” (Eli Lilly and Company, priority 2002, dated 2009).
Read-outs that look alike come from different tables or passages of the source.

Assays:
[1] = molecular target: T1, VDR (Homo sapiens, UniProt P11473); assay: VDR CTF (Caco-2 cell co-transfection assay); format: cell-based; settings: Caco-2 cells
T1 construct: the receptor expression vector pGa14-VDR-LBD (10 ng); expressed in transfected cells; host or cells: Caco-2 cells
T1 sequence (P11473 127-423 limits assumed): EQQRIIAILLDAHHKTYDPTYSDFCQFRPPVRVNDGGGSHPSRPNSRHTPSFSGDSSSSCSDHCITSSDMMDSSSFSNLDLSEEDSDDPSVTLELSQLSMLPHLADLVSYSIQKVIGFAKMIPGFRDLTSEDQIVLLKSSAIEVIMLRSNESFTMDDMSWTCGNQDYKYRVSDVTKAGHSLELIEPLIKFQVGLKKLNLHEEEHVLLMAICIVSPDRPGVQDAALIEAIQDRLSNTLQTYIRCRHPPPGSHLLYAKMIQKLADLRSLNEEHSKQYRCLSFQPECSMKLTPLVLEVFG
Method: 3. The VDR CTF (Caco-2 cells) test is described in the “Assay” section of the Description, infra.
2. The Caco-2 Cell Co-Transfection Assay:
The Caco-2 cell assay is an indicator for the undesirable condition of hypercalcemia. This co-transfection assay is a surrogate assay for in vivo calcemic activity of VDR ligands. […] Preferred assay results are greater than 1000 nM.
(2) Materials and Method for The Caco-2 Cell Assay:
Caco-2 cells, grown in phenol red free, DMEM (Invitrogen, Carlsbad, Calif.) containing 10% charcoal-stripped FCS (Hyclone, Logan, Utah), were transfected with Fugene 6 reagent (Roche Diagnostics, Indianapolis, Ind.). Cells (5000/well) were plated 18 h before transfection in a 96 well plate. The Cells were transfected with Gal-4-responsive reporter pFRLuc (150 ng, Stratagene, La Jolla Calif.) and the receptor expression vector pGa14-VDR-LBD (10 ng), along with Fugene 6 reagent (0.2 µl/well). The DNA-Fugene complex was formed by incubating the mixture for 30 min at room temperature. The cells were transfected in triplicate for 5 h, and treated with various concentrations of VDR ligands (form 0.01 nM to 10,000 nM concentration range) 18 h post-transfection. The luciferase activity was quantified using Steady-Glo reagent kit (Promega, Madison, Wis.) as per manufacturer's specifications.

[2] = molecular target: T2, RXR-VDR heterodimer (Homo sapiens, UniProt P11473); assay: RXR-VDR heterodimerization assay (SaOS-2 cells); format: cell-based
T2 construct: Add the Gal-4-RXR-DEF and VP16-VDR-LBD; expressed in transfected cells; host or cells: SaOS-2 cells
T2 sequence (P11473 127-423 limits assumed): T1 sequence (P11473 127-423 limits assumed)
T2 sequence (P19793 201-462 partner limits assumed): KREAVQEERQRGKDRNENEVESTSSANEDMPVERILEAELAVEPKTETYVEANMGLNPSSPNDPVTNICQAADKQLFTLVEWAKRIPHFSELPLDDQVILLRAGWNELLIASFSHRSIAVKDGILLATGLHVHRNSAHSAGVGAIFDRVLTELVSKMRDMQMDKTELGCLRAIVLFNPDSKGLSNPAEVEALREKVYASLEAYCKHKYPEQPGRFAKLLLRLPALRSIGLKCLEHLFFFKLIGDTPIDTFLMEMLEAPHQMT
From the text: 2. The RXR-VDR heterodimerization (SaOS-2 cells) test is described in the “Assay” section of the Description, infra.
1. The RXR-VDR heterodimerAssay:
This assay provides the VDR activity of a test compound.
(1) Materials and Method for RXR-VDR Heterodimerization Assay:
Luciferase Assay Reagent: • Use Steady-Glo Luciferase Reagent from Promega (Cat # E2550) Consists of: • a. E2533 Assay Substrate, lyopholized product and • b. […] DAY 2: Transfection Step 1: DNA and Media • Add plain DMEM media to tubes for mixing the DNA • Add the Reporter gene pFR-LUC • Add the Gal-4-RXR-DEF and VP16-VDR-LBD Step 2: FuGENE and Media • Prepare plain DMEM media in a ubes for mixing FuGENE • Add FuGENE 6 Transfection Reagent • Incubate Step 3: FuGENE, DNA and Media Complex • Add FuGENE Media complex from step 2 to DNA Media complex from step 1 • Incubate Step 4: FuGENE, DNA and Media Complex to-well plate • Add FuGENE-DNA-Media complex from step 3 to each plate • Incubate. […] Day 4: Luciferase Assay • Read the plates after drug treatment • Remove part of media from all the wells and leave remainder • Add Steady-Glo Luciferase Reagent mixture/wells • Incubate • Count each well using a Luminescence counter, Top Count NXT by Packard
Set a delay between plates to reduce the background.

[3] = system: rat osteocalcin promoter; assay: OCN (osteocalcin) promoter assay in RG-15 (ROS 17/2.8) cells; format: cell-based
Summary of the method: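 Rat osteoblast-like RG-15 (ROS 17/2.8) cells stably carry the rat osteocalcin promoter fused to luciferase. They were treated with compounds for 48 h in medium with 2% FBS and 0.01% DMSO. EC50 was derived from luciferase activity in cell lysates.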

[4] = Mouse hypercalcemia assay (six day, serum ionized calcium); format: in vivo
Method: 5. The Mouse Hypercalcemia test is described in the “Assay” section of the Description, infra.
4. The Mouse Hypercalcemia Assay
The Mouse Hypercalcemia Assay is a six day hypercalcemia test for toxicity and selectivity. Acceptable test results are levels greater than 300 μg/kg/day. Preferred assay results are levels greater than 1000 μg/kg/day.
(4) Materials and Method for The Mouse Hypercalcemia Assay:
Weanling, virus-antibody-free, five to six weeks old female DBF mice (Harlan, Indianapolis, Ind.) are used for all the studies. Animals are allowed to acclimate to local vivarium conditions for 2 days. […] The animals then are divided into groups with 4-5 mice per group. Different doses of test compounds prepared in 10% Ethanol and 90% sesame oil are administered to mice orally via gavage for 6 days. 1α-25(OH)2D3 0.5 μg/kg/d was also given to one group of mice as the positive control. Serum ionized calcium is evaluated at 6 hours after the last dosing under isoflurane anesthesia by Ciba-Corning Ca++/PH Analyzer, (Model 634, Chiron Diagnostics Corp., East Walpole, Mass.). Raw data of group differences is assessed by analysis of variance (ANOVA) using Fisher's protected least significant difference (PLSD) where the significance level was P<0.05.

| Structure (SMILES) | EC50 [1] [nM] | EC50 [2] [nM] | EC50 ([3]; Rattus norvegicus) [nM] | EC50 [3] [nM] | Mouse Hypercal [4] [µg/kg/day] |
| --- | --- | --- | --- | --- | --- |
| CCC(CC)(c1ccc(OCC(O)C(C)(C)C)c(C)c1)c1cc(C)c(C(=O)OC)s1 (single isomer, unassigned) [Ex. 6B] | 1060 | 323 | 326 |  |  |
| CCC(CC)(c1ccc(OCC(O)C(C)(C)C)c(C)c1)c1cc(C)c(S(=O)(=O)NCC(=O)OC)s1 (stereo not shown) [Ex. 136] | 901 | 431 |  |  |  |
| CCC(CC)(c1ccc(OCC(O)C(C)(C)C)c(C)c1)c1ccc(C(=O)OC)s1 (stereo not shown) [Ex. 5] | 1030 |  | 146 |  |  |
| CCCc1cc(C(CC)(CC)c2ccc(C(=O)O)s2)ccc1OCC(C)(O)C(C)(C)C (single isomer, unassigned) [Ex. 113, 3′-[4-(2-hydroxy-2,3,3-trimethylbutoxy)-3-n-propylphenyl]-3′-[5-carboxy-thiophen-2-yl]pentane] |  | 542 |  | 118 |  |
| CCC(CC)(c1ccc(OCC(O)C(C)(C)C)c(C)c1)c1ccc(S(=O)(=O)NCC(=O)OC)s1 (single isomer, unassigned) [Ex. 152] |  | 474 | 110 |  |  |
| CCCc1cc(C(CC)(CC)c2ccc(C(=O)O)s2)ccc1OCC(O)C(C)(C)C (single isomer, unassigned) [Ex. 95, 3′-[4-(2-hydroxy-3,3-dimethylbutoxy)-3-n-propylphenyl]-3′-[5-carboxy-thiophen-2-yl]pentane] | 1180 | 421 |  | 21.4 | >6000 |
| CCC(CC)(c1ccc(OCS(C)(=O)=O)c(C)c1)c1cc(C)c(CCC(O)C(C)(C)C)s1 (single isomer, unassigned) [Ex. 15B] | 245 | 212 |  |  |  |
| CCc1cc(C(CC)(CC)c2ccc(C(=O)O)s2)ccc1OCC(O)C(C)(C)C (single isomer, unassigned) [Ex. 101, 3′-[4-(2-hydroxy-3,3-dimethylbutoxy)-3-ethylphenyl]-3′-[5-carboxy-thiophen-2-yl]pentane] |  | 379 |  | 29.4 | 12000 |
| CCC(CC)(c1ccc(OCC(C)(O)C(C)(C)C)c(OC)c1)c1ccc(C(=O)N[C@H](C)C(=O)O)s1 (single isomer, unassigned) [Ex. 117, d-3′-[4-(2-hydroxy-2,3,3-trimethylbutoxy)-3-methoxyphenyl]-3′-[5-(carboxy-1-ethylamino)carbonyl-thiophen-2-yl]pentane] |  | 2210 |  | 101 |  |
